Earlier results, collected in patent US8545896B2, “Compositions, kits and methods for nutrition supplementation” (Chemo S. A. France, priority 2011, dated 2013).

Settings: intake of about 1000 IU per day, all adults

For `C=C1CC[C@H](O)C/C1=C/C=C1\CCC[C@]2(C)[C@@H]([C@H](C)CCCC(C)C)CC[C@@H]12` [vitamin D3, cholecalciferol], the “share of the population brought up to the 30 ng/ml serum range for 25-hydroxyvitamin D” value is listed as “at least 50%”.
